Assay results as given in patent US12209145B2, “PCSK9 antagonist compounds” (Merck Sharp & Dohme LLC, priority 2018, dated 2025).

Key:
Format in all cases: binding
[1] = target: T1, PCSK9 (Homo sapiens, UniProt Q8NBP7); assay: PCSK9 Alexa FRET Ultra TR-FRET assay (displacement of AlexaFluor647 tagged cyclic peptide); details: Ki Ultra, 0.5 nM biotinylated PCSK9, 960 nM AF cyclic peptide; Ki calculated from IC50 and KD of AF peptide
T1 construct: Biotinylated PCSK9 was obtained commercially; purchased
How it was run: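 Biotinylated PCSK9 (0.5 nM final) with 1.25 nM Strep-Eu and 960 nM AlexaFluor-tagged cyclic peptide in HEPES pH 7.4, NaCl, CaCl2, BSA, P20; ≥2 h at room temperature. IC50 from sigmoidal fit, converted to Ki (nM) using peptide KD; falling Eu counts flag false positives.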

[2] = target: T1, PCSK9; assay: PCSK9 Alexa FRET Plus TR-FRET assay (displacement of AlexaFluor647 tagged cyclic peptide Reagent B); details: Ki Plus, 0.5 nM biotinylated PCSK9, 960 nM AF cyclic peptide Reagent B; Ki calculated from IC50 and KD of AF peptide
How it was run: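 TR-FRET displacement using 0.5 nM biotinylated PCSK9 with 1.25 nM streptavidin-Eu and 960 nM AlexaFluor-tagged cyclic peptide in pH 7.4 HEPES with CaCl2, at least 2 h at RT. IC50 from sigmoidal fit, converted to Ki using the peptide KD; falling Eu counts flag false positives.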

[3] = target: T1, PCSK9; assay: PCSK9 Alexa FRET Standard TR-FRET assay (displacement of AlexaFluor647 tagged cyclic peptide Reagent A)
Description: The following is a description of the assays used to determine activity of compounds of the invention, and any comparator compounds reported, toward PCSK9 antagonism. Biotinylated PCSK9 was obtained commercially.
Alexa FRET Standard TR-FRET
A solution containing 1 nM biotinylated PCSK9+2.5 nM Lance Streptavidin Europium (Strep-Eu) is made in 50 mM HEPES pH 7.4, 0.15 M NaCl, 5 mM CaCl2, 0.01% BSA, and 0.01% Surfactant P20. A separate solution containing 40 nM of the AlexaFluor tagged cyclic peptide is made in the same buffer system. An Echo is used to transfer 0.750 ul of compound to an assay plate followed by the addition of 15 ul of PCSK9+Stept-Eu and 15 ul of AF peptide. The final assay volume is 30.750 ul containing 0.5 nM PCSK9, 1.25 nM Strep-Eu, and 20 nM AF cyclic peptide. The reaction is incubated at room temperature for at least two hours prior to fluorescence measurements using an Envision Multilabel Reader. […] values are determined by fitting data to a sigmoidal dose-response curve using nonlinear regression. Ki is then calculated from the IC50 and the KD of AF cyclic peptide. Counts (B-counts) of the europium-labeled PCSK9 are followed to observe if compounds are adversely PCSK9. A fall off of the B-counts likely indicates a false positive of inhibition. Data from this procedure is reported as “A=‘numerical value’ (nanomolar)”
Activity data obtained by one or both of the above-described procedures is reported for selected example compounds of the invention in the following format: Example No.: A (standard TR Fret)=‘numerical value’; P (Alexa Fret plus standard TR Fret)=‘numerical value’/, note that all values reported are nanomolar.

T1 sequence (Q8NBP7 153-692): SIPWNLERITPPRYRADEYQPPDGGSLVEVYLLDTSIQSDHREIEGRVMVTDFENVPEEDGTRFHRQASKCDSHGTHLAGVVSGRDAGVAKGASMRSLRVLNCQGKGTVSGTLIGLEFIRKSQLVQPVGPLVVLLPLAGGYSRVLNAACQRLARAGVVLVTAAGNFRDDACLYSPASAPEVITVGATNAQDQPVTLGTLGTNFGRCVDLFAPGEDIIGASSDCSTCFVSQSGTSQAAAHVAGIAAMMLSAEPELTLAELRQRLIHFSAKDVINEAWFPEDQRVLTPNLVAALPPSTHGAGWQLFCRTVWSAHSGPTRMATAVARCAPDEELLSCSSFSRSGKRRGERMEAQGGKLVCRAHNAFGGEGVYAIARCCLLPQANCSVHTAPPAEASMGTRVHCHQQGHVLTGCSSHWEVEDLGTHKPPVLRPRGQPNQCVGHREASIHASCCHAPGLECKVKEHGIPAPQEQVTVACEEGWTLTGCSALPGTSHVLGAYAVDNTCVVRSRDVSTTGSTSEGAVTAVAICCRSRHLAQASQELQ

Compound	Ki [1] [nM]	Ki [2] [nM]	Ki [3] [nM]
COc1ccc(C[C@@H]2NC(=O)[C@H]([C@@H](C)O)NC(=O)[C@@H]3[C@@H]4CCN3C(=O)[C@@H]3Cc5cn(c6ccc(F)cc56)CCCCCCN(Cc5ccc(cc5)CCNC(=O)[C@]5(C)CCCN5C2=O)C(=O)CCC(=O)N[C@@H](C)C(=O)N[C@H](CNC(=O)CCOCCOCCCN(C)C)C(=O)N[C@@H](Cc2cccc(c2)CNC(=O)CO4)C(=O)N3)cc1 [Ex-50]	0.00443	0.0105	< 1.26
COc1ccc(C[C@@H]2NC(=O)[C@H]([C@@H](C)O)NC(=O)[C@@H]3[C@@H]4CCN3C(=O)[C@@H]3Cc5cn(c6ccc(F)cc56)CCCCOc5cc(ccc5CNC(=O)CCC(=O)N[C@@H](C)C(=O)N[C@H](CN)C(=O)N[C@@H](Cc5cccc(c5)CNC(=O)CO4)C(=O)N3)CCNC(=O)[C@]3(C)CCCN3C2=O)cc1 [Ex-54]	0.484	0.367	< 1.26
